Peptide text beside a SMILES is read from it. * marks the point of attachment. Myristoyl = CCCCCCCCCCCCCC(=O)*

The source of these data is patent publication EP4620480A1, “IMPLANTATION FACILITATOR, AND SCREENING SYSTEM THEREFOR” (Kansai Medical University Educational Corporation, priority 2022, dated 2025).

The test system of one data set is B6D2F 1 mouse embryos. The data set is described as follows: Embryo development after transfer with peptide-supplemented medium (Example 7). The class given is in vivo. To be noted: blastocysts in KSOM medium with 32 µM Iznm-2, transferred to pseudopregnant ICR mice, examined at E14. As to the method:
In order to examine the effect of the peptide medicament on embryo development, the following experiment was performed. ICR male mice at 8 weeks of age were vasectomized. ICR female mice in proestrus were mated with the vasectomized male mice, and the female mice having developed a copulation plug on the following day were used as pseudopregnant female mice. Two days after confirming the presence of the copulation plug, B6D2F 1 mouse embryos that had developed into blastocysts were transferred to the female mice. The blastocysts were added to KSOM medium supplemented with 32 µM Iznm-2 immediately before the transfer, and the embryos were transferred together with the medium. The amount of the medium injected into the uterus at the time of transfer was 5 µl or less. The embryo transfer was performed in the following manner. The pseudopregnant female mice were anesthetized, and the skin on one side in the dorsum and the abdominal wall of each mouse were incised to expose the uterus to the outside of the body. The uterus was pierced through with a 26-G needle, and the embryos were injected into the thus-formed hole together with the medium using a glass tube. After the transfer, the uterus was returned to the body, and the incision was sutured. The transferred embryos were allowed to develop in the recipient mice until E14. […]

Data set [1] can be described thus: Blood tests on maternal bodies after intraperitoneal administration. To be noted: female mice, 8 µM with respect to total weight, in corn oil, blood 24 hours after administration. It is filed as in vivo. As to the method: An excess amount of Iznm-2 was administered intraperitoneally to female mice to examine the side effects of the peptide medicament. In Example 8, […] Iznm-2 was administered together with 5 µl or less of the embryos to the uterus of each mouse. In the present experiment, Iznm-2 was administered in such a manner that the concentration thereof would be 8 µM with respect to the total weight of each mouse. Iznm-2 was dissolved in corn oil. As a control, corn oil without the peptide medicament was administered. Blood samples were collected 24 hours after the administration, and blood components serving as indicators of the condition of the liver and kidney were analyzed.

With `CCCCCCCCCCCCCC(=O)N[C@@H](CCCCN)C(=O)N[C@@H](Cc1ccccc1)C(=O)N[C@@H](CCC(=O)O)C(=O)N[C@@H](CCC(=O)O)C(=O)N[C@@H](CCC(=O)O)C(=O)N[C@@H](CCCNC(=N)N)C(=O)N[C@@H](CO)C(=O)N[C@@H](CCCNC(=N)N)C(=O)N[C@@H](CS)C(=O)N[C@@H](CCCCN)C(=O)N[C@@H](Cc1c[nH]c2ccccc12)C(=O)N[C@@H](CCSC)C(=O)N[C@H](C(=O)O)[C@@H](C)O` [Iznm-2, Myr-KFEEERSRCKWMT] (Myristoyl-KFEEERSRCKWMT-OH), the “development of transferred embryos” value in the data set on B6D2F 1 mouse embryos is given as “developed normally”. Further, the CRE in data set [1] (Kidney) came out at 0.12 mg/dL. In data set [1] (Liver & Kidney), the LAP was found to be 26 IU/L and the TP was 5.1 g/dL. In data set [1] (Liver), this molecule had an A/G of 1.85, an ALB of 3.3 g/dL, an ALP of 463 IU/L and an ALT of 38 IU/L. In data set [1] (Liver), this molecule had a ChE of 32.5 IU/L, a D-BIL of 0.02 mg/dL, an I-BIL of 0.02 mg/dL and a T-BIL of 0.08 mg/dL. Moreover, the γ-GT in data set [1] (Liver) is 3 IU/L.
